This is an account of results in US9790211B2, “5-amino-quinoline-8-carboxamide derivatives as 5-HT4 receptor agonists” (SUVEN LIFE SCIENCES LIMITED, priority 2013, dated 2017).

The AUC(0-t) is exposure summed from dosing to a finite time, without extrapolation to infinity. Lower therefore signals low exposure. By Cmax is commonly meant the peak of the concentration-time curve. For orientation: Tmax means the time from dosing to the highest level. As usually defined, the half-life is the time needed for the level to fall by half in the phase considered. Low readings indicate rapid decline, high ones slow decline. As a reminder, the bioavailability is the share of a dose that reaches the circulation, judged against a reference dose that is usually intravenous. Low readings indicate poor availability, high ones good availability. What is called Emax is the size of the effect at its maximum, as opposed to the concentration needed. The EC50 is the concentration giving half of the maximal effect.

The nature of series [1]: Rodent brain penetration study. The class given is in vivo, Male Wistar rats. Particulars: male, Wistar, rat, brain, po, 3 mg/kg, 3 mg/kg oral (gavage), read-out: Single dose Brain Penetration (Cb/Cp). How it is done: Male Wistar rats (225±25 grams) were used as experimental animals. Three animals were housed in each cage. Animals were given water and food ad libitum throughout the experiment and maintained on a 12 hours light/dark cycle. Brain penetration was determined in discrete manner in rats. One day prior to dosing day, male wistar rats (225-250 grams) were acclimatized. After acclimatization the rats were grouped according to their weight. In each group, 3 animals were kept in individual cage and allowed free access to food and water. At each time point (0.50, 1, and 2 hours) n=3 animals were used. The compounds of formula (I) were suitably preformulated and administered orally at (free base equivalent) 3 mg/kg. Blood samples were removed via, cardiac puncture by using isoflurane anesthesia. The animals were sacrificed to collect brain tissue. Plasma was separated and brain samples were homogenized and stored frozen at −20° C. until analysis. The concentrations of the compounds of formula (I) in plasma and brain were determined using LC-MS/MS method. The compounds of formula (I) were quantified in plasma and brain homogenate by qualified LC-MS/MS method using suitable extraction technique. The compounds of formula (I) were quantified in the calibration range of 1-500 ng/mL in plasma and brain homogenate. Study samples were analyzed using calibration samples in the batch and quality control samples spread across the batch. Extent of brain-plasma ratio was calculated (Cb/Cp).

A short description of series [2]: Rodent pharmacokinetic study. The class given is in vivo, Male wistar rats. Particulars: plasma, Wistar/Male rat; for bioavailability: 3 mg/kg oral vs 1 mg/kg intravenous. How it is done: Male wistar rats (225±25 grams) were used as experimental animals. Three to five animals were housed in each cage. Two days prior to dosing day, male wistar rats (225-250 grams) were anesthetized with isoflurane for surgical placement of jugular vein catheter. Animals were fasted over night before oral dosing (p.o) and food pellets were allowed 2 hours post dosing, whereas during intravenous dosing food and water were provided as ad libitum. Three rats were dosed with compounds of formula (I) (3 mg/kg) orally and intravenously (1 mg/kg).
At each time point blood was collected through jugular vein and immediately replenish with an equivalent volume of normal saline from freely moving rats. Collected blood was transferred into a labeled eppendr off containing 10 μL of heparin as anticoagulant. Typically blood samples were collected as following time points: Pre dose, 0.08 (only i.v.), 0.25, 0.5, 1, 2, 4, 6, 8, and 24 hours post dose (n=3). Blood was centrifuged at 4000 rpm for 10 minutes. Plasma was prepared and stored frozen at −20° C. until analysis. The concentrations of the compounds of formula (I) were quantified in plasma by qualified LC-MS/MS method using suitable extraction technique. The compounds of formula (I) were quantified in the calibration range around 2-2000 ng/mL in plasma. Study samples were analyzed using calibration samples in the batch and quality control samples spread across the batch.
Pharmacokinetic parameters Cmax, Tmax, AUC1, T1/2 and Bioavailability were calculated by non-compartmental model using standard non-coinpartmental model by using WinNonLin 5.0.1 or Phoenix WinNonlin 6.2 version Software package.

A further series concerns Male Wistar rats. The experiment in a line: Object recognition task model. The class given is in vivo. Conditions: dose mg/kg: Ex 1 0.1, Ex 2 0.03, Ex 4 0.03, Ex 13 1, Ex 23 0.01, Ex 37 10, Ex 43 0.3; for Exploration time mean ± S.E.M, Familiar object / Exploration time mean ± S.E.M, Novel object: choice trial T2, p.o.; for Inference: p.o. The method, then:
The cognition enhancing properties of compounds of this invention were estimated by using this model.
Male Wistar rats (230-280 grams) were used as experimental animals. Four animals were housed in each cage. Animals were kept on 20% food deprivation before one day and given water ad libitum throughout the experiment and maintained on a 12 hours light/dark cycle. Also the rats were habituated to individual arenas for 1 hour in the absence of any objects.
One group of 12 rats received vehicle (1 mL/Kg) orally and another set of animals received compound of the formula (I) either orally or i.p., before one hour of the familiar (T1) and choice trial (T2).
The experiment was carried out in a 50×50×50 cm open field made up of acrylic. In the familiarization phase, (T1), the rats were placed individually in the open field for 3 minutes, in which two identical objects (plastic bottles, 12.5 cm height×5.5 cm diameter) covered in yellow masking tape alone (a1 and a2) were positioned in two adjacent corners, 10 cms from the walls. After 24 hours of the (T1) trial for long-term memory test, the same rats were placed in the same arena as they were placed in T1 trial. Choice phase (T2) rats were allowed to explore the open field for 3 minutes in presence of one familiar object (a3) and one novel object (b) (Amber color glass bottle, 12 cm high and 5 cm in diameter). Familiar objects presented similar textures, colors and sizes. During the T1 and T2 trial, explorations of each object (defined as sniffing, licking, chewing or having moving vibrissae whilst directing the nose towards the object at a distance of less than 1 cm) were recorded separately by stopwatch. Sitting on an object was not regarded as exploratory activity, however, it was rarely observed.
T1 is the total time spent exploring the familiar objects (a1+a2).
T2 is the total time spent exploring the familiar object and novel object (a3+b).
The object recognition test was performed as described by Behaviour Brain Research, (1988), 31, 47-59.

For series [3], the target named is T1, recombinant human 5-HT4 receptor (Homo sapiens, UniProt Q13639).
T1 construct: expressed in transfected cells
T1 sequence (Q13639 whole entry): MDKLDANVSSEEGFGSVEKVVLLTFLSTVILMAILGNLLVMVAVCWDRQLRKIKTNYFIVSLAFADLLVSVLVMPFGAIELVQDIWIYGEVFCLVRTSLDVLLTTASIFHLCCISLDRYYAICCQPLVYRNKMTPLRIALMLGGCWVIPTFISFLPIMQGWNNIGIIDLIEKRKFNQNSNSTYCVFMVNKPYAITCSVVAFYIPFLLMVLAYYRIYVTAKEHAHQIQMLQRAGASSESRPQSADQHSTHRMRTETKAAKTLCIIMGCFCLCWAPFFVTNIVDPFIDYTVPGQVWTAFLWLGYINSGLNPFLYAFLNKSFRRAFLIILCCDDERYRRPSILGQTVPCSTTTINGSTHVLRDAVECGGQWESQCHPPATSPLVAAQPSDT
The experiment in a line: Determination of EC50 values for 5-HT4 receptor (CHO cells, pCRE-Luc reporter). The class given is cell-based. Conditions: for Emax: CHO; for EC50: CHO cells, human 5-HT4 receptor, luciferase reporter, 4 hours incubation. How it is done: Determination of EC50 Values for 5-HT4 Receptor
A stable CHO cell line expressing recombinant human 5-HT4 receptor and pCRE-Luc reporter system was used for cell-based assay. The assay offers a non-radioactive based approach to determine binding of a compound to GPCRs. In this specific assay, the level of intracellular cyclic AMP, which is modulated by activation, or inhibition of the receptor is measured. The recombinant cells harbor luciferase reporter gene under the control of cAMP response element.
The above cells were grown in 96 well clear bottom white plates in Hams F12 medium containing 10% fetal bovine serum (FBS). Prior to the addition of compounds or standard agonist, cells were serum starved overnight. Increasing concentrations of test compounds were added in OptiMEM medium to the cells. The incubation was continued at 37° C. in CO2 incubator for 4 hours. Medium was removed and cells were washed with phosphate buffered saline. The cells were lysed and luciferase activity was measured in a Luminometer. Luminescence units were plotted against the compound concentrations using Graphpad software.
In general terms: In a reporter assay the amount or activity of a reporter protein is the signal.

Regarding `Nc1c(Cl)cc(C(=O)NCC2C3CN(CC4CCOCC4)CC23)c2ncccc12.O=C(O)C(O)C(O)C(=O)O` (stereo not drawn) [Example 2, 5-Amino-6-chloro-N-{[3-(tetrahydro-2H-pyran-4-ylmethyl)-3-azabicyclo[3.1.0]hex-6-yl]methyl}quinoline-8-carboxamide L(+)-tartarate], the Kp in series [1] stood at 1.31 ± 0.1. Besides, in series [2] (1 mg/kg intravenous (bolus)), the exposure AUC(0-t) came to 284 ± 10 ng·h/mL, the highest level (Cmax) was 252 ± 30 ng/mL, the Tmax stood at 4.8 min and the half-life was 96 ± 6 min. For the same molecule, in series [2] (3 mg/kg oral (gavage)), the AUC(0-t) stood at 531 ± 51 ng·h/mL, the peak level (Cmax) was 140 ± 24 ng/mL, the time of peak concentration (Tmax) was 25.2 ± 8.4 min and the half-life was 72 ± 6 min. Besides, in series [2], the bioavailability worked out at 62 ± 6%. For the same molecule, in the series with Male Wistar rats, the “Exploration time mean ± S.E.M, Familiar object” value was 7.46 ± 1.30 s; the “Exploration time mean ± S.E.M, Novel object” value stood at 15.75 ± 1.65 s; the Inference result is “Active”. In series [3], the maximal response (Emax) stood at 59% and the EC50 worked out at 0.5 nM.
With `Nc1c(Cl)cc(C(=O)NCC2(F)CCN(CC3(O)CCOCC3)CC2)c2ncccc12.O=C(O)C(O)C(O)C(=O)O` [Example 27, 5-Amino-6-chloro-N-{[4-fluoro-1-(4-hydroxytetrahydro-2H-pyran-4-ylmethyl)-4-piperidinyl]methyl}quinoline-8-carboxamide L(+)-tartarate], the Kp in series [1] worked out at 0.4 ± 0.02. In series [2] (1 mg/kg intravenous (bolus)), the AUC(0-t) amounted to 401 ± 15 ng·h/mL, the Cmax was 448 ± 41 ng/mL, the Tmax came to 4.8 min and the half-life was 102 ± 24 min. For the same molecule, in series [2] (3 mg/kg oral (gavage)), the AUC(0-t) amounted to 236 ± 72 ng·h/mL, the peak level (Cmax) was 173 ± 48 ng/mL and the Tmax came to 15 min. The bioavailability in series [2] worked out at 20 ± 6%. Further, in series [3], the Emax stood at 63% and the concentration giving a half-maximal response (EC50) is 0.6 nM.
With `CC(C)(O)CN1CCC(F)(CNC(=O)c2cc(Cl)c(N)c3cccnc23)CC1.O=C(O)C(O)C(O)C(=O)O` [Example 37, 5-Amino-6-chloro-N-{[4-fluoro-1-(2-hydroxy-2-methylpropyl)-4-piperidinyl]methyl} quinoline-8-carboxamide L(+)-tartarate], in series [1], the Kp came to 0.61 ± 0.07. Further, in series [2] (1 mg/kg intravenous (bolus)), the exposure AUC(0-t) came out at 274 ± 25 ng·h/mL, the Cmax stood at 324 ± 52 ng/mL, the Tmax was found to be 4.8 min and the half-life was 114 ± 6 min. In series [2] (3 mg/kg oral (gavage)), the AUC(0-t) came out at 200 ± 49 ng·h/mL, the highest level (Cmax) was 137 ± 37 ng/mL, the time of peak concentration (Tmax) is 15 min and the half-life is 78 ± 18 min. This molecule also showed a bioavailability in series [2] of 24 ± 6%. In the series on Male Wistar rats, the “Exploration time mean ± S.E.M, Familiar object” value came out at 8.45 ± 1.65 s; the “Exploration time mean ± S.E.M, Novel object” value was found to be 17.81 ± 1.42 s; the Inference entry was “Active”. For the same molecule, in series [3], the Emax was 62% and the EC50 came out at 2.2 nM.
For the molecule `CC(C)(O)CN1CCC(F)(CNC(=O)c2cc(F)c(N)c3cccnc23)CC1.O=C(O)C(O)C(O)C(=O)O` [Example 43, 5-Amino-6-fluoro-N-{[4-fluoro-1-(2-hydroxy-2-methylpropyl)-4-piperidinyl]methyl} quinoline-8-carboxamide L(+)-tartarate], in series [1], the Kp was found to be 0.93 ± 0.26. In series [2] (1 mg/kg intravenous (bolus)), the AUC(0-t) stood at 362 ± 83 ng·h/mL, the highest level (Cmax) was 306 ± 47 ng/mL, the Tmax came out at 4.8 min and the half-life is 114 ± 54 min. Also, in series [2] (3 mg/kg oral (gavage)), the AUC(0-t) came to 373 ± 39 ng·h/mL, the maximum concentration (Cmax) is 231 ± 40 ng/mL, the time to peak (Tmax) was 19.8 ± 8.4 min and the half-life is 204 ± 132 min. In addition, the bioavailability in series [2] came out at 34 ± 4%. In the series with Male Wistar rats, the “Exploration time mean ± S.E.M, Familiar object” value is 9.30 ± 0.93 s; the “Exploration time mean ± S.E.M, Novel object” value came to 16.09 ± 2.63 s; the Inference entry is reported as “Active”. Besides, in series [3], the Emax was found to be 43% and the EC50 is 2.9 nM.
